This is an account of results in patent US20130079526A1, “Synthesis of Chirally Purified Substituted Benzothiazole Diamines” (priority 2010, published 2013).

Bounds are passed on as bounds.

Data set [1] has as its system rodents.
Data set [2] concerns rodents. Particulars: single oral dose, and above; cited from earlier work.
In data set [3] the test system is dogs. The note with it: single oral dose, and above; cited from earlier work.
The test system of data set [4] is monkeys. The note with it: single oral dose; cited from earlier work.
Data set [5] deals with human subjects. The note with it: cited from earlier work.
For data set [6], the system named is humans. Particulars: dose as low as; cited from earlier work.

Take `CCCN[C@H]1CCc2nc(N)sc2C1` [pramipexole, (6S)-4,5,6,7-tetrahydro-N6-propyl-2,6-benzothiazole-diamine]: in data set [1] (human equivalent), the “equivalent human dose of the rodent lethal dose” value lay within 7 to 12 mg/kg. Besides, the “equivalent human dose of the rodent lethal dose for a 70 kg individual” value in data set [1] (rodents, in vivo) was in the range of 500 to 850 mg. In data set [2], the “dose at which death occurred” value is 70 to 105 mg/kg. The “dose at which vomiting occurred” value in data set [3] is at least 0.7 µg/kg. Further, the “dose at which major excitation was displayed” value in data set [4] is given as 3.5 mg/kg. Further, the “initial single dose not tolerated” value in data set [5] is “greater than 0.20 mg”. Moreover, the “dose shown to cause somnolence” value in data set [6] is given as 1.5 mg.
